Experimental data taken from patent US20130244255A1, “ANTIBODIES DIRECTED TO GPNMB AND USES THEREOF” (priority 2006, published 2013).
“Also recorded” adds a separate entry of the source. Where a name gives a salt, the structure may show the parent alone. Values belong to the compound of their own block, whether it stands above or below them. Where a SMILES comes first, the peptide text is derived from it. [ ]: non-standard residue; d: D form. The star is where a group is joined. Dolaproine = CO[C@@H]([C@@H]1CCCN1)[C@@H](C)C(=O)O; Dil = CC[C@H](C)[C@H](NC)[C@@H](CC(=O)O)OC; X1 = C[C@@H](N*)[C@@H](O)c1ccccc1; NMeV = CN[C@H](C(=O)O)C(C)C

How the values were obtained:
[1] = tested on: SK-MEL-2 human melanoma xenograft; test: SK-MEL-2 human melanoma xenograft in athymic mice; format: in vivo
Method: Five- to 6-week old athymic mice (CD-1 nu/nu females), used for human tumor xenografts, were obtained from Harlan Laboratories (Indianapolis, Ind.). Animals were housed in specific pathogen-free conditions, according to the guidelines of the Association for Assessment and Accreditation of Laboratory Animal Care International (AAALAC International). Test animals were provided pelleted food and water ad libitum and kept in a room with conditioned ventilation (HVAC), temperature (22°±2° C.), relative humidity (55%±15%), and photoperiod (12 hr). All studies were carried out with approved institutional animal care and use protocols.
(§1) The tumor inhibitory activity of the CR011-MMAE immunoconjugate was measured in an anti-tumor xenograft model using athymic mice, according to published methods (see Geran et al., Cancer Chemother. Rep. 3:1-104 (1972)). […] When tumors became established (10-20 days), the animals were pair-matched into groups (n=6 mice/group), and treatment was administered by intravenous injection (tail vein).
(§2) The SK-MEL-2 human melanoma (ATCC #HTB-68) was derived from a metastatic site (skin of thigh) of a person with malignant melanoma, and the SK− MEL-5 human melanoma (ATCC #HTB-70) was derived from a metastatic site (axillary lymph node) of a person with malignant melanoma (see Fogh et al., J. Natl. Cancer Inst. 59: 221-226 (1977)). Both cell lines were obtained from the American Type Culture Collection.
(§3) The effects of treatment were monitored by repetitive tumor measurements across 2 diameters with Vernier calipers; tumor size (in mg) was calculated using a standard formula, (W^2×L)/2, assuming a specific gravity of 1.0. Tumor size and body weights were assessed twice weekly. Mice were examined daily, however, and moribund animals were humanely euthanized if clinical indications of excessive pain or distress were noted (i.e., prostration, hunched posture, paralysis/paresis, distended abdomen, ulcerations, abscesses, seizures, and/or hemorrhages) Animals with tumors exceeding 2,000 mg were removed from the study and euthanized humanely.
No apparent or statistically significant anti-tumor effects were observed. […] In preliminary studies, tumor regression was complete and was not followed by regrowth of the tumor despite lengthy observation periods (up to 200 days).

[2] = tested on: SK-MEL-5 human melanoma xenograft; test: SK-MEL-5 human melanoma xenograft in athymic mice; format: in vivo
Method: as §1, §2, §3
Soon after the commencement of treatment with paclitaxel, however, significant tumor growth inhibition was observed (P≦0.039) at day 3 after treatment began, and this anti-tumor effect continued, producing 100% growth inhibition (stasis). The responses of SK-MEL-5-bearing test animals to vinblastine and paclitaxel were short-lived. After cessation of treatment at the maximally tolerated doses, tumors resumed rapid, progressive growth.

UACC-62 = test: Anti-GPNMB antibody mediated indirect cell killing (saporin secondary conjugate, colony count); format: cell-based, human; conditions: 5-FU 600 uM; antibodies with saporin toxin-conjugated secondary antibody
Method: UACC-62, a GPNMB antigen expressing cell line, and TK10, a non-expressing cell line were plated onto flat bottom 96-well tissue culture plates (Becton Dickinson, Franklin Lakes, N.J., USA) at a density of 3000 cells per well. Once the cells reached ˜25% confluency, 100 ng/well of secondary antibody-toxin conjugate (goat anti-human IgG-saporin; Advanced Targeting Systems, San Diego, USA, HUM-ZAP; cat #IT-22) was added. Anti-GPNMB MAbs 2.10.2, 2.22.1, 1.15.1 or isotype control mAb (pK16.3) were added to each well at a final concentration of 10 or 50 μg/mL. An anti-EGFR monoclonal antibody (MS-269-PABX, NeoMarkers, Fremont, Calif., USA) was used as a positive primary antibody control. Chemotherapy reagent 5-FU at 600 uM was used as a positive reagent control. On day 5, the cells were trypsinized, transferred to 6-well tissue culture plates and incubated at 37° C. Plates were examined daily and between 8-10 days, all plates were Giemsa stained and colonies were counted.

CG56972/GPNMB = molecular target: T1, CG56972/GPNMB (Homo sapiens, UniProt Q14956); test: FACS binding of CR011 IgG1 and IgG2 on SK-MEL-2 cells
T1 construct: endogenous in cells; host or cells: UACC-62 and a panel of melanoma lines (A5); SK-MEL-2 (A52); SK-Mel-5 (A63)
T1 sequence (Q14956 23-572): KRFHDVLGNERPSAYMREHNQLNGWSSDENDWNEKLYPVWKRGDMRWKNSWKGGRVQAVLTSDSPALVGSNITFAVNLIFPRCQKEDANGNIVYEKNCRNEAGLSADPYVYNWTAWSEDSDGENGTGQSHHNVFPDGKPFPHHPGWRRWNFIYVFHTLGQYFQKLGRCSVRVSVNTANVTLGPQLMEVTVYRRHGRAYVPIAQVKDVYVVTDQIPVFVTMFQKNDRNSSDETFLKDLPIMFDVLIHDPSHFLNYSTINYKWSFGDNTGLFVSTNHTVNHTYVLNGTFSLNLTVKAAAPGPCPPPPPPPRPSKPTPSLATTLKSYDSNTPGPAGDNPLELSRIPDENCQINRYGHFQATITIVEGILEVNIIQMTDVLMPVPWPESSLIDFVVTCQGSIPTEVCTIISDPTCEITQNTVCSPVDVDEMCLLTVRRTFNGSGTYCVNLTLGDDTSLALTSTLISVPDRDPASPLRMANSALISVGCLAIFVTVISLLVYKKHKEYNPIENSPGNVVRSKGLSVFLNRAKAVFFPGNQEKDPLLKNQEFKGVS

SK-Mel-2 cells = test: ADCC assay with human PBMC (DELFIA EuTDA cytotoxicity); format: cell-based; conditions: 30 to 100 fold PBMC; 2, 5, 10 μg/200 μl mAb
Method: Human PBMC were isolated from whole blood using a Ficoll-Plaque. Briefly, in a 50 mL tube, 15 mL of PBS was added to 20 mL of whole blood which was underlayed with 10 mL Ficoll-Plaque and the tube was centrifuged at 2000 RPM. Mononuclear cells were collected from the interface and washed 3 times with PBS. The ADCC assay was carried out in a 96 well plate using a fluorescence assay for cytolysis from Perkin-Elmer (DELFIAEuTDA Cytotoxic assay). The procedure is based on loading target cells with a fluorescence enhancing ligand (BATDA, bis (acetoxymethyl) terpyridine—dicarboxylate). The hydrophic ligand penetrates the membrane quickly. Within the cell the esterbonds are hydrolyzed to form a hydrophilic ligand (TDA, terpyridine—dicarboxylic acid) which can no longer pass through the membrane. After cytolysis the ligand is released and introduced to the Europium solution. The europium and the ligand form a highly fluorescent and stable chelate (EuTDA). Fluorescence intensity are recorded using excitation and emission wavelengths as λex=340 nm and λem=613 nm, respectively.

Compound: CC[C@]1(O)C[C@@H]2CN(CCc3c([nH]c4ccccc34)[C@@](C(=O)OC)(c3cc4c(cc3OC)N(C)[C@H]3[C@@](O)(C(=O)OC)[C@H](OC(C)=O)[C@]5(CC)C=CCN6CC[C@]43[C@@H]65)C2)C1 [Vinblastine, vinblastine sulfate, reference compound]
anti-tumor effect (in words) ([1]; i.v., CR011-vcMMAE 20, 10, 5 or 2.5 mg/kg q4d×4, vinblastine […] q4d×4): very slight, but not significant, anti-tumor effect
anti-tumor effect (in words) ([2]; i.v., CR011-vcMMAE 1.25 to 20 mg/kg q4d×4, vinblastine […] q4d×4): noticeable, but not significant tumor growth inhibition

Compound: O=c1[nH]cc(F)c(=O)[nH]1 [Mab 5-FU]
effect on UACC-62 cells (in words) (UACC-62): complete killing

FACS shift on SK-MEL-2 cells vs isotype control mAbs (CG56972/GPNMB): comparable FACS shifts
Compound: CR011 IgG1 mAb: CR011 mAb 1.15.1 switched to IgG1 constant region; heavy chain SEQ ID NO: 395
cytolysis of SK-MEL-2 cells (ADCC) (SK-Mel-2 cells): caused cytolysis of SK-MEL-2 cells in a dose dependent manner

Compound: CC[C@H](C)[C@@H]([C@@H](CC(=O)N1CCC[C@H]1[C@H](OC)[C@@H](C)C(=O)N[C@H](C)[C@@H](O)c1ccccc1)OC)N(C)C(=O)[C@@H](NC(=O)[C@@H](NC)C(C)C)C(C)C [monomethylauristatin E, reference compound] (H-[NMeV]V[Dil][Dolaproine]-X1)
tumor growth inhibition by components of the immunoconjugate (in words) ([1]; doses identical to that contained in the intact immunoconjugate (5 mg/kg q4d×4)): lack of responses; also recorded: lack of tumor growth inhibition

Compound: CC(=O)O[C@H]1C(=O)[C@@]2(C)[C@H]([C@H](OC(=O)c3ccccc3)[C@]3(O)C[C@H](OC(=O)[C@H](O)[C@@H](NC(=O)c4ccccc4)c4ccccc4)C(C)=C1C3(C)C)[C@]1(OC(C)=O)CO[C@@H]1C[C@@H]2O [Paclitaxel, paclitaxel, reference compound]
growth inhibition (tumor stasis) ([1]; paclitaxel i.v. 24 mg/kg q2d×4, for approximately 2 weeks after treatment commenced): 100%
growth inhibition (stasis) ([2]; paclitaxel 24 mg/kg i.v. q2d×4): 100%
long-term, tumor-free survivor ([2]; paclitaxel group): One
